Results from PMC4424274, “Evaluation of [^11C]CB184 for imaging and quantification of TSPO overexpression in a rat model of herpes encephalitis” (European Journal of Nuclear Medicine and Molecular Imaging, 2015).

Tests used:
[1] = target: T1, TSPO (Rattus norvegicus, UniProt P16257); experiment: Ex vivo biodistribution of [^11C]CB184 in control and HSE rats
T1 construct: from tissue; host or cells: Brain regions and peripheral organs of male Wistar rats, measured in vivo by PET and ex vivo by gamma counting
Experimental: PET scans were performed using a microPET Focus 220 camera (Siemens Medical Solutions Inc., Malvern, PA) on either day 6 or day 7 after inoculation with HSV-1 [18], depending on the severity of clinical symptoms. The rats were anaesthetized with 5 % isoflurane mixed with medical air at a flow rate of […]. After induction, anaesthesia was maintained with 1.5 – 2 % of isoflurane. The anaesthetized rats were positioned in the camera in a supine position with the head in the field of view. The PET tracer [^11C]CB184 was manually injected via the penile vein, and at the same time a dynamic 60-min scan was started. […] For 30 min the animals were kept under anaesthesia on the operation table after injection of the PET tracer into the penile vein, and were then placed in the scanner for a 30-min dynamic scan. A transmission scan was obtained in all rats using a ^57Co point source for attenuation and scatter correction. In the pretreated group, 5 mg/kg unlabelled PK11195 (Sigma-Aldrich, St. Louis, MO) in dimethyl sulphoxide (DMSO) at a concentration of 10 mg/ml was administered via a tail vein 5 min before injection of the PET tracer.
The brain and peripheral organs were excised and dissected, and blood was centrifuged to collect a plasma sample. Tissues were weighed and radioactivity was measured in a gamma counter (LKB Wallac, Turku, Finland). Tracer uptake in each region was corrected for the injected tracer dose and body weight and expressed as standardized uptake value (SUV), which was defined as: radioactivity (MBq/cm^3)/[injected dose (MBq)/body weight (g)].

[2] = test system: TSPO; conditions: normal mice; cited from earlier work
[3] = HSE rats pretreated with 5 mg/kg PK11195, approximately 75 min after injection
[4] = HSE rats, approximately 75 min after injection
[5] = control (PBS) rats pretreated with 5 mg/kg PK11195, approximately 75 min after injection
[6] = control rats, approximately 75 min after injection

CCCN(CCC)C(=O)Cc1c(-c2ccc(O[11CH3])cc2)nc2c(Cl)cc(Cl)cn12 [[^11C]CB184]
SUV ex vivo, Adrenals [1, 3]: 8.14 ± 7.09 SUV
SUV ex vivo, Bone [1, 3]: 0.39 ± 0.24 SUV
SUV ex vivo, Colon [1, 3]: 0.49 ± 0.36 SUV
SUV ex vivo, Fat [1, 3]: 0.72 ± 0.49 SUV
SUV ex vivo, Heart [1, 3]: 0.77 ± 0.53 SUV
SUV ex vivo, Hippocampus [1, 3]: 0.09 ± 0.05 SUV
SUV ex vivo, Ileum [1, 3]: 2.74 ± 1.77 SUV
SUV ex vivo, Kidney [1, 3]: 1.12 ± 0.75 SUV
SUV ex vivo, Liver [1, 3]: 10.71 ± 9.25 SUV
SUV ex vivo, Lung [1, 3]: 1.62 ± 0.98 SUV
SUV ex vivo, Medulla [1, 3]: 0.13 ± 0.06 SUV
SUV ex vivo, Pancreas [1, 3]: 0.62 ± 0.37 SUV
SUV ex vivo, Parietal/temporal/occipital cortex [1, 3]: 0.10 ± 0.05 SUV
SUV ex vivo, Plasma [1, 3]: 0.19 ± 0.04 SUV
SUV ex vivo, Pons [1, 3]: 0.12 ± 0.10 SUV
SUV ex vivo, Red blood cells [1, 3]: 0.11 ± 0.07 SUV
SUV ex vivo, Spleen [1, 3]: 0.71 ± 0.55 SUV
SUV ex vivo, Stomach [1, 3]: 0.82 ± 0.60 SUV
SUV ex vivo, Striatum [1, 3]: 0.09 ± 0.06 SUV
SUV ex vivo, Submandibularis [1, 3]: 0.79 ± 0.56 SUV
SUV ex vivo, Testis [1, 3]: 0.29 ± 0.21 SUV
SUV ex vivo, Thymus [1, 3]: 0.74 ± 0.46 SUV
SUV ex vivo, Whole brain [1, 3]: 0.08 ± 0.08 SUV
SUV ex vivo, Adrenals [1, 4]: 13.86 ± 4.42 SUV
SUV ex vivo, Amygdala/piriform cortex [1, 4]: 0.52 ± 0.21 SUV
SUV ex vivo, Bone [1, 4]: 0.98 ± 0.14 SUV
SUV ex vivo, Colon [1, 4]: 3.29 ± 0.81 SUV
SUV ex vivo, Fat [1, 4]: 0.57 ± 0.39 SUV
SUV ex vivo, Heart [1, 4]: 23.69 ± 2.71 SUV
SUV ex vivo, Hippocampus [1, 4]: 0.55 ± 0.21 SUV
SUV ex vivo, Ileum [1, 4]: 6.20 ± 2.67 SUV
SUV ex vivo, Kidney [1, 4]: 13.17 ± 2.25 SUV
SUV ex vivo, Liver [1, 4]: 7.97 ± 1.73 SUV
SUV ex vivo, Lung [1, 4]: 22.53 ± 2.41 SUV
SUV ex vivo, Medulla [1, 4]: 1.51 ± 0.57 SUV
SUV ex vivo, Olfactory bulb [1, 4]: 1.52 ± 0.22 SUV
SUV ex vivo, Pancreas [1, 4]: 4.23 ± 0.76 SUV
SUV ex vivo, Parietal/temporal/occipital cortex [1, 4]: 0.41 ± 0.14 SUV
SUV ex vivo, Plasma [1, 4]: 0.28 ± 0.24 SUV
SUV ex vivo, Pons [1, 4]: 1.26 ± 0.52 SUV
SUV ex vivo, Red blood cells [1, 4]: 0.13 ± 0.01 SUV
SUV ex vivo, Spleen [1, 4]: 11.76 ± 1.42 SUV
SUV ex vivo, Stomach [1, 4]: 5.88 ± 1.87 SUV
SUV ex vivo, Striatum [1, 4]: 0.45 ± 0.15 SUV
SUV ex vivo, Submandibularis [1, 4]: 4.89 ± 0.75 SUV
SUV ex vivo, Testis [1, 4]: 0.88 ± 0.12 SUV
SUV ex vivo, Thymus [1, 4]: 3.23 ± 0.33 SUV
SUV ex vivo, Whole brain [1, 4]: 0.99 ± 0.21 SUV
SUV ex vivo, Adrenals [1, 5]: 7.72 ± 5.20 SUV
SUV ex vivo, Bone [1, 5]: 0.31 ± 0.19 SUV
SUV ex vivo, Colon [1, 5]: 0.42 ± 0.24 SUV
SUV ex vivo, Fat [1, 5]: 0.48 ± 0.18 SUV
SUV ex vivo, Heart [1, 5]: 0.68 ± 0.40 SUV
SUV ex vivo, Hippocampus [1, 5]: 0.12 ± 0.08 SUV
SUV ex vivo, Ileum [1, 5]: 2.31 ± 1.15 SUV
SUV ex vivo, Kidney [1, 5]: 0.72 ± 0.44 SUV
SUV ex vivo, Liver [1, 5]: 11.28 ± 5.43 SUV
SUV ex vivo, Lung [1, 5]: 0.95 ± 0.57 SUV
SUV ex vivo, Medulla [1, 5]: 0.12 ± 0.07 SUV
SUV ex vivo, Pancreas [1, 5]: 0.57 ± 0.34 SUV
SUV ex vivo, Parietal/temporal/occipital cortex [1, 5]: 0.10 ± 0.06 SUV
SUV ex vivo, Plasma [1, 5]: 0.27 ± 0.15 SUV
SUV ex vivo, Pons [1, 5]: 0.12 ± 0.08 SUV
SUV ex vivo, Red blood cells [1, 5]: 0.11 ± 0.05 SUV
SUV ex vivo, Spleen [1, 5]: 0.70 ± 0.47 SUV
SUV ex vivo, Stomach [1, 5]: 0.70 ± 0.46 SUV
SUV ex vivo, Striatum [1, 5]: 0.11 ± 0.07 SUV
SUV ex vivo, Submandibularis [1, 5]: 0.70 ± 0.46 SUV
SUV ex vivo, Testis [1, 5]: 0.30 ± 0.24 SUV
SUV ex vivo, Thymus [1, 5]: 0.72 ± 0.44 SUV
SUV ex vivo, Whole brain [1, 5]: 0.15 ± 0.08 SUV
SUV ex vivo, Adrenals [1, 6]: 14.84 ± 5.45 SUV
SUV ex vivo, Bone [1, 6]: 1.00 ± 0.26 SUV
SUV ex vivo, Colon [1, 6]: 3.38 ± 0.97 SUV
SUV ex vivo, Fat [1, 6]: 0.43 ± 0.21 SUV
SUV ex vivo, Heart [1, 6]: 22.81 ± 2.80 SUV
SUV ex vivo, Hippocampus [1, 6]: 0.39 ± 0.18 SUV
SUV ex vivo, Ileum [1, 6]: 6.41 ± 3.07 SUV
SUV ex vivo, Kidney [1, 6]: 12.52 ± 2.22 SUV
SUV ex vivo, Liver [1, 6]: 7.57 ± 1.64 SUV
SUV ex vivo, Lung [1, 6]: 18.39 ± 2.20 SUV
SUV ex vivo, Medulla [1, 6]: 0.59 ± 0.14 SUV
SUV ex vivo, Pancreas [1, 6]: 3.55 ± 0.52 SUV
SUV ex vivo, Parietal/temporal/occipital cortex [1, 6]: 0.32 ± 0.06 SUV
SUV ex vivo, Plasma [1, 6]: 0.18 ± 0.08 SUV
SUV ex vivo, Pons [1, 6]: 0.63 ± 0.08 SUV
SUV ex vivo, Red blood cells [1, 6]: 0.19 ± 0.18 SUV
SUV ex vivo, Spleen [1, 6]: 13.23 ± 2.64 SUV
SUV ex vivo, Stomach [1, 6]: 5.04 ± 0.82 SUV
SUV ex vivo, Striatum [1, 6]: 0.28 ± 0.07 SUV
SUV ex vivo, Submandibularis [1, 6]: 4.28 ± 1.02 SUV
SUV ex vivo, Testis [1, 6]: 0.98 ± 0.11 SUV
SUV ex vivo, Thymus [1, 6]: 3.36 ± 0.58 SUV
SUV ex vivo, Whole brain [1, 6]: 0.66 ± 0.16 SUV
SUV ex vivo, adrenal glands (mean ± SD) ([1]; pretreated with unlabelled PK11195, control and HSE groups together): 7.93 ± 5.87 SUV
Uptake in TSPO-rich regions (cerebellum and olfactory bulb) as compared with (R)-[^11C]PK11195 [2]: higher uptake
